{
  "source": "patent US20150031686A1",
  "about": "“PHENYL-OXAZOLYL DERIVATIVES, PREPARATION METHOD THEREOF, AND RELATED APPLICATION OF THE PHENYL-OXAZOLYL DERIVATIVES AS AN IMPDH INHIBITOR” (INSTITUTE OF MEDICINAL BIOTECHNOLOGY, CHINESE ACADEMY OF …, priority 2012, published 2015)",
  "data": [
    {"system": "Coxsackie virus type B3 (COX-B3)", "assay": "Anti-Coxsackie virus type B3 (COX-B3) activity, CPE in Vero cells", "type": "cell-based", "conditions": "Reed-Muench", "description": "With Vero (African green monkey kidney) cells as viral hosts, inhibitory effects of the compounds of present invention on the grades of pathological lesions by coxsackievirus B3 (COX-B3), B6 (COX-B6) viruses in Vero cells were determined. The measured results of viral inhibitory activity of the compounds are shown in Table 3 and Table 4; wherein RBV is the control drug ribavirin. The inhibitory activities of the measured compounds against coxsackievirus B3, B6 were stronger than the control.\nScreening of Anti-B3, B6 Type Coxsackie Viruses (COX-B3, COX-B6) Activity of the Samples\nPrepare stock solutions of COX-B3 (or COX-B6) virus strains as well as tested compounds in DMSO before use. Before tests, dilute the stock solution with culture solution into a certain concentration and then dilute 3 times to make a total of eight dilutions. Use ribavirin (RBV) as positive control. Test procedures are as follows: seed Vero cells into 96-well culture plates, infect with 10^−5 Coxsackie virus of B3 (or B6) type, 24 hours later; adsorb subsequently for 2 hours, then discard the virus solution, add in the sample compounds and the positive control according to the abovementioned dilutions, set cell control wells and virus control wells simultaneously. When the cytopathic effect (CPE) of cells in the virus control wells reach 4+, observe CPE of the cells in each group. Use Reed-Muench method to calculate 50% inhibitory concentration (IC50) of the sample compounds against coxsackie virus B3 (or B6) type.", "units": {"IC50": "µg/mL", "IC50, anti-Coxsackie virus type B3 (COX-B3)": "µg/mL"}, "values": [
      {"compound": "COc1cc(NCc2nc3ccccc3s2)ccc1-c1cnco1", "note": "[Compound 8, N-(benzothiazol-2-ylmethyl)-3-methoxy-4-(oxazol-5-yl) aniline]", "IC50": 0.45},
      {"compound": "COc1cc(N(C)Cc2csc(C)c2)ccc1-c1cnco1", "note": "[Compound 12, N-methyl-N-(5-methylthien-3-ylmethyl)-3-methoxy-4-(oxazol-5-yl) aniline]", "IC50": 0.23},
      {"compound": "C#CCN(Cc1cc(CC)sc1C)c1ccc(-c2cnco2)c(OC)c1", "note": "[Compound 13, N-(5-ethyl-2-methylthien-3-ylmethyl)-N-(3-methoxy-4-oxazole-5-phenyl) propyn-2-ylamine]", "IC50, anti-Coxsackie virus type B3 (COX-B3)": 0.30},
      {"compound": "COc1cc(NCc2csc(Cl)c2)ccc1-c1cnco1", "note": "[Compound 14, N-(5-chlorothien-3-ylmethyl)-3-methoxy-4-(oxazol-5-yl) aniline]", "IC50": 0.44},
      {"compound": "COc1cc(NCc2csc(Br)c2)ccc1-c1cnco1", "note": "[Compound 15, N-(5-bromothien-3-ylmethyl)-3-methoxy-4-(oxazol-5-yl) aniline]", "IC50": 0.46},
      {"compound": "COc1cc(NCc2csc(-c3ccccc3)c2)ccc1-c1cnco1", "note": "[Compound 16, N-(5-phenylthien-3-ylmethyl)-3-methoxy-4-(oxazol-5-yl) aniline]", "IC50": 0.45},
      {"compound": "COc1cc(NCc2cncn2C)ccc1-c1cnco1", "note": "[Compound 17, N-(1-methyl-1H-imidazol-5-ylmethyl)-3-methoxy-4-(oxazol-5-yl) aniline]", "IC50": 2.56},
      {"compound": "COc1cc(CNc2ccc(-c3cnco3)c(OC)c2)cs1", "note": "[Compound 18, N-(5-methoxy-thien-3-ylmethyl)-3-methoxy-4(oxazol-5-yl) aniline]", "IC50": 0.25},
      {"compound": "COc1cc(/N=C/c2csc(C)c2)ccc1-c1cnco1", "note": "[Compound 19, N-(5-methylthien-3-ylmethylene)-3-methoxy-4-(oxazol-5-yl) aniline]", "IC50": 12.8},
      {"compound": "COc1ccc(-c2cnco2)cc1NCc1c(C)noc1C", "note": "[Compound 23, N-(3,5-dimethylisoxazol-4-ylmethyl)-2-methoxy-5-(oxazol-5-yl) aniline]", "IC50": 0.76},
      {"compound": "COc1ccc(-c2cnco2)cc1NCc1ccc(CCl)s1", "note": "[Compound 24, N-(5-chloromethylthien-2-ylmethyl)-2-methoxy-5-(oxazol-5-yl) aniline]", "IC50": 0.57},
      {"compound": "COc1ccc(-c2cnco2)cc1NCc1ccc(CBr)s1", "note": "[Compound 25, N-(5-bromomethylthien-2-ylmethyl)-2-methoxy-5-(oxazol-5-yl) aniline]", "IC50": 0.53},
      {"compound": "COc1ccc(-c2cnco2)cc1NCc1ccc(-c2ccccc2)s1", "note": "[Compound 26, N-(5-phenylthien-2-ylmethyl)-2-methoxy-5-(oxazol-5-yl) aniline]", "IC50": 0.57},
      {"compound": "COc1ccc(-c2cnco2)cc1NCc1c(C)nn(C)c1Cl", "note": "[Compound 27, N-(5-chloro-1,3-dimethyl-1H-pyrazol-4-ylmethyl)-2-methoxy-5-(oxazol-5-yl) aniline]", "IC50": 1.47},
      {"compound": "COc1ccc(-c2cnco2)cc1NCc1cnn(-c2ccccc2)n1", "note": "[Compound 28, N-(2-phenyl-2H-1,2,3-triazol-4-ylmethyl)-(2-methoxy-5-oxazole-5-yl) aniline]", "IC50": 1.23},
      {"compound": "COc1ccc(-c2cnco2)cc1/N=C/c1cc(Cl)cs1", "note": "[Compound 29, N-(4-chlorothien-2-ylmethylene)-2-methoxy-5-(oxazol-5-yl)-aniline]", "IC50": 10.7},
      {"compound": "COc1ccc(-c2cnco2)cc1NCc1cc2cc(Cl)ccc2s1", "note": "[Compound 30, N-(5-chlorobenzothien-2-ylmethyl)-2-methoxy-5-(oxazol-5-yl) aniline]", "IC50": 0.54},
      {"compound": "COc1ccc(-c2cnco2)cc1NCc1ccsc1", "note": "[Compound 31, N-(thien-3-ylmethyl)-2-methoxy-5-(oxazol-5-yl) aniline]", "IC50": 0.88},
      {"compound": "CCC(=O)N(Cc1csc(C)c1)c1cc(-c2cnco2)ccc1OC", "note": "[Compound 32]", "IC50": 0.68},
      {"compound": "COc1ccc(-c2cnco2)cc1NCC1CCN(C)CC1", "note": "[Compound 33, N-(2-methoxy-5-oxazol-5-ylphenyl)-1-methylpiperidin-4-yl methylamine]", "IC50": 0.64},
      {"compound": "COc1ccc(-c2cnco2)cc1NCc1csc(Cl)c1", "note": "[Compound 34, N-(5-chlorothien-3-ylmethyl)-2-methoxy-5-(oxazol-5-yl) aniline]", "IC50": 0.57},
      {"compound": "COc1ccc(-c2cnco2)cc1NCc1csc(Br)c1", "note": "[Compound 35, N-(5-bromothien-3-ylmethyl)-2-methoxy-5-(oxazol-5-yl) aniline]", "IC50": 0.57},
      {"compound": "COc1ccc(-c2cnco2)cc1NCc1csc(-c2ccccc2)c1", "note": "[Compound 36, N-(5-phenylthien-3-ylmethyl)-2-methoxy-5-(oxazol-5-yl) aniline]", "IC50": 0.59},
      {"compound": "COc1ccc(-c2cnco2)cc1NCC1CCOCC1", "note": "[Compound 37, N-(tetrahydropyran-4-ylmethyl)-2-methoxy-5-oxazol-5-yl aniline]", "IC50": 0.63},
      {"compound": "COc1ccc(-c2cnco2)cc1NCc1cccnn1", "note": "[Compound 38, N-(pyridazin-3-yl-methyl)-2-methoxy-5-oxazol-5-yl aniline]", "IC50": 0.88},
      {"compound": "COc1ccc(-c2cnco2)cc1/N=C/c1ccsc1", "note": "[Compound 39, N-(thien-3-ylmethylene)-2-methoxy-5-(oxazol-5-yl)-aniline]", "IC50": 11.1},
      {"compound": "COc1ccc(-c2cnco2)cc1NCc1csc2c(C)c(Br)ccc12", "note": "[Compound 40, N-(6-bromo-7-methyl-benzothien-3-ylmethyl)-2-methoxy-5-oxazol-5-yl aniline]", "IC50": 0.26},
      {"compound": "COc1cc(NCc2c(Cl)nc(Cl)nc2Cl)ccc1-c1cnco1", "note": "[Compound 43, N-(2,4,6-trichloropyrimidin-5-ylmethyl)-3-methoxy-4-(oxazol-5-yl) aniline]", "IC50": 1.03},
      {"compound": "COc1cc(NCc2ncc(Cl)nc2Cl)ccc1-c1cnco1", "note": "[Compound 44, N-(3,5-dichloroperazin-2-ylmethyl)-3-methoxy-4-(oxazol-5-yl) aniline]", "IC50": 0.69},
      {"compound": "COc1ccc(-c2cnco2)cc1NCc1ccc(Br)o1", "note": "[Compound 45, N-(5-bromofuran-2-ylmethyl)-2-methoxy-5-(oxazol-5-yl) aniline]", "IC50": 0.88},
      {"compound": "COc1ccc(-c2cnco2)cc1NCc1ccc(-c2cccc(Cl)c2)o1", "note": "[Compound 46, N-[5-(3-chlorophenyl)-furan-2-ylmethyl]-2-methoxy-5-(oxazol-5-yl) aniline]", "IC50": 0.76},
      {"compound": "COc1cc(NCc2ccc(C(=O)Nc3cc(OC)c(OC)c(OC)c3)o2)ccc1-c1cnco1", "note": "[Compound 47, N-2-(3,4,5-trimethoxyphenylaminocarbonyl) furan-5-ylmethyl 3-methoxy-4-(oxazol-5-yl)aniline]", "IC50": 0.56},
      {"compound": "COCc1ccc(CNc2cc(-c3cnco3)ccc2OC)o1", "note": "[Compound 48, N-(5-methoxymethylfuran-2-ylmethyl)-2-methoxy-5-(oxazol-5-yl) aniline]", "IC50": 0.5},
      {"compound": "COc1ccc(-c2cnco2)cc1NCc1coc2ccccc12", "note": "[Compound 50, N-(benzofuran-3-ylmethyl)-2-methoxy-5-(oxazol-5-yl) aniline]", "IC50": 0.46},
      {"compound": "COc1cc(NCc2cccn2C)ccc1-c1cnco1", "note": "[Compound 51, N-(1-methyl-1H-pyrrol-2-ylmethyl)-3-methoxy-4-(oxazol-5-yl) aniline]", "IC50": 2.47},
      {"compound": "COc1cc(-c2cnco2)c(NCc2ccnc3ccccc23)cc1O", "note": "[Compound 58, 2-methoxy-4-(oxazol-5-yl)-5-[(quinolin-4-ylmethyl)-amino] phenol]", "IC50": 3.22},
      {"compound": "COc1ccc(-c2cnco2)cc1N", "note": "[Compound 67, 2-methoxy-5-(oxazol-5-yl) aniline]", "IC50": 1.88},
      {"compound": "COc1cc(NS(=O)(=O)c2ccc(C)cc2)ccc1-c1cnco1", "note": "[Compound 69]", "IC50": 0.98},
      {"compound": "COc1cc(NCCCS(=O)(=O)O)ccc1-c1cnco1", "note": "[Compound 70, 3-[3-methoxy-4-(oxazol-5-yl)-anilino]-1-propanesulfonic acid]", "IC50": 155},
      {"compound": "COc1cc(NCCc2ccc(C)s2)ccc1-c1cnco1", "note": "[Compound 72, N-[2-(5-methylthien-2-yl)-ethyl]-3-methoxy-4-(oxazol-5-yl) aniline]", "IC50": 0.44},
      {"compound": "COc1cc(NCCc2ccc(Br)s2)ccc1-c1cnco1", "note": "[Compound 73, N-[2-(5-bromothien-2-yl)-ethyl]-3-methoxy-4-(oxazol-5-yl) aniline]", "IC50": 0.35},
      {"compound": "COc1cc(NCCc2noc3ccccc23)ccc1-c1cnco1", "note": "[Compound 74, N-(1,2-benzisoxazol-3-ylethyl)-3-methoxy-4-(oxazol-5-yl) aniline]", "IC50": 0.63},
      {"compound": "COc1cc(NCc2cccc3c2oc2ccccc23)ccc1-c1cnco1", "note": "[Compound 75, N-(dibenzofuran-4-ylmethyl)-3-methoxy-4-(oxazol-5-yl) aniline]", "IC50": 0.45},
      {"compound": "COc1cc(CNCc2ccc(C)s2)ccc1-c1cnco1", "note": "[Compound 76, N-(5-methylthien-2-ylmethyl)-3-methoxy-4-(oxazol-5-yl) benzylamine]", "IC50": 0.24},
      {"compound": "COc1cc(CNCc2ccc(Cl)s2)ccc1-c1cnco1", "note": "[Compound 77, N-(5-chlorothien-2-ylmethyl)-3-methoxy-4-(oxazol-5-yl) benzylamine]", "IC50": 0.35},
      {"compound": "COc1cc(CNCc2cccc3nonc23)ccc1-c1cnco1", "note": "[Compound 78, N-(benzo[1,2,5]oxadiazol-4-ylmethyl)-3-methoxy-4(oxazol-5-yl) benzylamine]", "IC50": 0.36},
      {"compound": "Cc1ccc(-c2cnco2)cc1NCc1c(O)ccc2ccccc12", "note": "[Compound 79, 1-(2-methyl-5-oxazol-5-ylanilino) methyl-naphthol-2]", "IC50": 0.35}
    ]}
  ]
}
